Activity calls are given as the source filed them. The calls are words filed in the database; no cut-off is given here.
Key:
Histone deacetylase 1 [1] = target: T1, Histone deacetylase 1 (Homo sapiens, UniProt Q13547); assay: Inhibition of HDAC1 (unknown origin) incubated for 48 hrs
[2] = target: DNA topoisomerase 2-alpha (Homo sapiens, UniProt P11388); assay: Inhibition of human Topo II-alpha-mediated decatenation of kDNA at 100 uM incubated for 30 mins
Supercoiled DNA = assay: Binding affinity to supercoiled DNA (unknown origin) assessed as DNA intercalation measured after 30 mins by gel electrophoresis; assay type: nucleic-acid assay
Histone deacetylase 1 [3] = target: T1, Histone deacetylase 1; assay: Inhibition of HDAC1 extracted from human A549 nucleus incubated for 1 hr by fluorometric assay; assay type: cell-free
[4] = target: T2, Protein deacetylase HDAC6 (Homo sapiens, UniProt Q9UBN7); assay: Inhibition of HDAC6 (unknown origin) using acetylated-peptide substrate by fluorometric assay
T2 sequence (Q9UBN7 whole entry): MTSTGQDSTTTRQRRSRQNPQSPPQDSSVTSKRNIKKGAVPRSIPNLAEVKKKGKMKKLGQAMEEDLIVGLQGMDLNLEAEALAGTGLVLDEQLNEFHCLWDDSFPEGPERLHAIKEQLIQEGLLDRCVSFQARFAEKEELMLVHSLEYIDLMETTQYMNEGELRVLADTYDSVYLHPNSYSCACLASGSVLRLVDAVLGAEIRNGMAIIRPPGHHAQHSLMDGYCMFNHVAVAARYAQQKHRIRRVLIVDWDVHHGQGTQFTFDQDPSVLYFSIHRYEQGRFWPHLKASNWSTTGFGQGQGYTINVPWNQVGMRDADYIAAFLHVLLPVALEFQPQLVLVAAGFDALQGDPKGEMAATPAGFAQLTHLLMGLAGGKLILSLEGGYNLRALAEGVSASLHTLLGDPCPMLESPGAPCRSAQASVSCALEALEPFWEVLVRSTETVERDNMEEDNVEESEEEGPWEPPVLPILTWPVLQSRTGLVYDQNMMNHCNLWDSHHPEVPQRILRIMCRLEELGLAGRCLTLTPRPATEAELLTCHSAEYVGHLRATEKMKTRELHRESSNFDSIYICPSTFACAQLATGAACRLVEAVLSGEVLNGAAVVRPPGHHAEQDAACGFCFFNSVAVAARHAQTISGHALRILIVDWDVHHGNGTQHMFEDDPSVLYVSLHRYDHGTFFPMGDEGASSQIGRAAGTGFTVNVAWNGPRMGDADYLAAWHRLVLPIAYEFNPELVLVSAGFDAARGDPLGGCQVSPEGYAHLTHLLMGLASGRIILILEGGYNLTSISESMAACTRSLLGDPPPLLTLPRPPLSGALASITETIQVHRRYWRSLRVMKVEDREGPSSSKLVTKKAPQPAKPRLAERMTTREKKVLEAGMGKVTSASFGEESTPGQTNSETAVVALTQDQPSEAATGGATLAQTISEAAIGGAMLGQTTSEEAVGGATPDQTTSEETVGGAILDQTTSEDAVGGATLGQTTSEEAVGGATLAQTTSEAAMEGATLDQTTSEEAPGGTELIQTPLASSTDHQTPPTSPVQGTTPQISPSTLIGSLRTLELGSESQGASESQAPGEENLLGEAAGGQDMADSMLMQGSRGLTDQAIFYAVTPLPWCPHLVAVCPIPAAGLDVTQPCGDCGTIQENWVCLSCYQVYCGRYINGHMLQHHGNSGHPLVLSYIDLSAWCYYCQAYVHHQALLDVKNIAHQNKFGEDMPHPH

Histone deacetylase 8 = target: T3, Histone deacetylase 8 (Homo sapiens, UniProt Q9BY41); assay: Inhibition of HDAC8 (unknown origin) by fluorometric assay
T3 sequence (Q9BY41 whole entry): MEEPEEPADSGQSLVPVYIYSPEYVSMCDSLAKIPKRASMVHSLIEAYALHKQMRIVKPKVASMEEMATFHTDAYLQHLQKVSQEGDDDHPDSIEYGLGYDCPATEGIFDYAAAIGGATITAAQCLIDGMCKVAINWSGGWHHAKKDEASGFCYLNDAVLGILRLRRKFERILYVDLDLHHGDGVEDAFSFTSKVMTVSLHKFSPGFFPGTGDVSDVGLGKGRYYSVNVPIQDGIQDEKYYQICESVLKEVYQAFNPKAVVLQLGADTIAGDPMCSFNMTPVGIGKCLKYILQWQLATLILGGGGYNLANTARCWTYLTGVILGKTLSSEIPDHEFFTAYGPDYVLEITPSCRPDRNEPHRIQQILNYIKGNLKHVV

NCI-H1299 = assay: cells; assay type: functional, cell-based; conditions: Homo sapiens, NCI-H1299, 48 h
MDA-MB-231 [5] = assay: cells; assay type: functional, cell-based; conditions: Homo sapiens, MDA-MB-231, 48 h
MCF7 = assay: cells; assay type: functional, cell-based; conditions: Homo sapiens, MCF7, 48 h
HT-29 = assay: cells; assay type: functional, cell-based; conditions: Homo sapiens, HT-29, 48 h
A549 [6] = assay: cells; conditions: Homo sapiens, A549, 48 h
[7] = target: T4, DNA topoisomerase 1 (Homo sapiens) (UniProt P11387); assay: Inhibition of human Topo I-mediated relaxation of supercoiled DNA preincubated for 30 mins followed by proteinase K addition measured after 30 mins by gel electrophoresis; conditions: time 60.0 min
T4 sequence (whole entry): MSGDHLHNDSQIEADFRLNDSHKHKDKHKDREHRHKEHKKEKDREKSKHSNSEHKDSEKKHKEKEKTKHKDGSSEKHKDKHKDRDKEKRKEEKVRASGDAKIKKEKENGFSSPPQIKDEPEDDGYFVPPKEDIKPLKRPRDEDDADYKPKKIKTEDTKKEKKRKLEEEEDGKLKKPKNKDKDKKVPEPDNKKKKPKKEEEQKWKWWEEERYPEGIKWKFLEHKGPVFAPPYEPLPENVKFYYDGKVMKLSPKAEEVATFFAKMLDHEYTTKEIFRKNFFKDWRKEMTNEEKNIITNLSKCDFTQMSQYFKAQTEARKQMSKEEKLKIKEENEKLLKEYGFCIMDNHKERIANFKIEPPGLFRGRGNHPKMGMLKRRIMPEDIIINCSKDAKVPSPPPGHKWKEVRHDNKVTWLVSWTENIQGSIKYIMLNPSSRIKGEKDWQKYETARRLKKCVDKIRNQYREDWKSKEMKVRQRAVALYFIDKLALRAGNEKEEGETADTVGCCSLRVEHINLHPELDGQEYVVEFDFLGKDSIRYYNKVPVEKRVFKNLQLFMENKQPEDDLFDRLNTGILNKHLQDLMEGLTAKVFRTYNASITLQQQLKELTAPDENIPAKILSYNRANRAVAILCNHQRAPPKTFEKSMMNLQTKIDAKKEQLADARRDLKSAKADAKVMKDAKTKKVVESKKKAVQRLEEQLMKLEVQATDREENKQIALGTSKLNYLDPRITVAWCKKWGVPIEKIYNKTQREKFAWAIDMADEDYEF

A549 [8] = assay: Anti-cancer activity against human A549 3D cell culture model assessed as inhibition of 3D culture initiation at sub- IC50 incubated for 21 days with replacement of medium containing compound on every seventh day; assay type: functional, cell-based; conditions: time 21.0 day
A549 [9] = assay: Anti-cancer activity against human A549 3D cell culture model at sub- IC50 incubated for 17 days with replacement of medium containing compound on every third day; assay type: functional, cell-based; conditions: time 17.0 day
A549 [10] = assay: Induction of ROS generation in human A549 cells incubated for 48 hrs by DCFH-DA staining based analysis; assay type: functional, cell-based
A549 [11] = assay: Induction of ROS generation in human A549 cells incubated for 48 hrs by Cell Rox red staining based flow cytometry; assay type: functional
A549 [12] = assay: Effect on mitochondrial membrane permeability in human A549 cells assessed as decrease in red to green fluorescence ratio at sub-IC50 incubated for 48 hrs by JC-1 staining based analysis; assay type: functional, cell-based
A549 [13] = assay: Induction of apoptosis in human A549 cells by Annexin-V/PI staining based flow cytometry; assay type: functional, cell-based
A549 [14] = assay: Induction of cell cycle arrest in human A549 cells assessed as accumulation at G1 phase by PI staining based flow cytometry; assay type: functional
A549 [15] = assay: Induction of cell cycle arrest in human A549 cells assessed as accumulation at G2/M phase by PI staining based flow cytometry; assay type: functional
[16] = Antiproliferative activity against human NCI-H1975 cells harboring EGFR T790M mutant incubated for 48 hrs by MTT assay; assay type: functional, cell-based; conditions: NCI-H1975, 48 h
[17] = Toxicity in athymic nude Crl:NU-Foxn1nu mouse xenografted with human A549 cells assessed as animal survival at 30 mg/kg, po administered twice a week for 1 month; assay type: organism-based; conditions: in vivo, 730 h, time 1 months
MDA-MB-231 [18] = assay: Anti-cancer activity against human MDA-MB-231 cells assessed as decrease in PCNA level at 5 uM incubated for 48 hrs by immunoblot analysis; assay type: functional, cell-based
Histone deacetylase 1 [19] = target: T1, Histone deacetylase 1; assay: Inhibition of HDAC1 (unknown origin)
[20] = target: T2, Protein deacetylase HDAC6; assay: Inhibition of HDAC6 (unknown origin)

Sequence of DNA topoisomerase 2-alpha (P11388 whole entry): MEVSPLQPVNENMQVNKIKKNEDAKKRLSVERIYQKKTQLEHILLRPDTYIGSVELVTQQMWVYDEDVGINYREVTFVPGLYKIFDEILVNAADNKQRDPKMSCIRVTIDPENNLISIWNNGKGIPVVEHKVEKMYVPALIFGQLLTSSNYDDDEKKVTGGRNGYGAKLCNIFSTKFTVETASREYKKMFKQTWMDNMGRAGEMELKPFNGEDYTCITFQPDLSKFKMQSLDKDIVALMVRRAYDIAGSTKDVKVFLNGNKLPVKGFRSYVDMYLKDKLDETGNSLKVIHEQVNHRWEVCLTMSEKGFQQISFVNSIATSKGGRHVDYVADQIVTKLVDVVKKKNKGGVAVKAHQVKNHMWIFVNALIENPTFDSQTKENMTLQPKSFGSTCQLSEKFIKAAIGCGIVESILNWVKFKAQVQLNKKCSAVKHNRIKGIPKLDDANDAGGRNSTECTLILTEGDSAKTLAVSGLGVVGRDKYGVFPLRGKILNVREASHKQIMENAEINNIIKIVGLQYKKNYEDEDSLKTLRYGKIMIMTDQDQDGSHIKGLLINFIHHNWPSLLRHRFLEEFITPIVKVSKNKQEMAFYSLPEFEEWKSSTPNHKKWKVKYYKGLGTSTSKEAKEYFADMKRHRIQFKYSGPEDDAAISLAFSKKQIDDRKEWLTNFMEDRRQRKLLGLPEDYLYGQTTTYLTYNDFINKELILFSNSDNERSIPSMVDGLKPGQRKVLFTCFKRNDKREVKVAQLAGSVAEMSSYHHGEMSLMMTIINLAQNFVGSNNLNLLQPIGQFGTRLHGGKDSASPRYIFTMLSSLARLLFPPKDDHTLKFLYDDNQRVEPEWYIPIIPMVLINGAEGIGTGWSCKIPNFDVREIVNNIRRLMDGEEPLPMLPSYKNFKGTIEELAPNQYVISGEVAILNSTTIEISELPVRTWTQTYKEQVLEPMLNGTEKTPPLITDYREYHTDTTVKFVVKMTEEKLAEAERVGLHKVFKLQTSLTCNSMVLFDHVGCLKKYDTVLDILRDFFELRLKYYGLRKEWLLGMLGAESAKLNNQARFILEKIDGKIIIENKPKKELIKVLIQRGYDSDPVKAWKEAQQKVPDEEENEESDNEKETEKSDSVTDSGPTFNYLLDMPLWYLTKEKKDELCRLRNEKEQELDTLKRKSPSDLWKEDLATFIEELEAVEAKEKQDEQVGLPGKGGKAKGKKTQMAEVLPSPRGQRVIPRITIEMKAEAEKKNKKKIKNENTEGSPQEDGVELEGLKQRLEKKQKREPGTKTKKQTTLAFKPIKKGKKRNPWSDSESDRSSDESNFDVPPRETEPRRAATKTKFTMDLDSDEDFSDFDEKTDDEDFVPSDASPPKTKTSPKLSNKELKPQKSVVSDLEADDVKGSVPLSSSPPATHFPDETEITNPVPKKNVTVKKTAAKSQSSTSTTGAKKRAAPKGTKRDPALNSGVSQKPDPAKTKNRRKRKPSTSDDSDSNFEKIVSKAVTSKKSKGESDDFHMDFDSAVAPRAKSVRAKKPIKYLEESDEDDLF
T1 sequence (Q13547 whole entry): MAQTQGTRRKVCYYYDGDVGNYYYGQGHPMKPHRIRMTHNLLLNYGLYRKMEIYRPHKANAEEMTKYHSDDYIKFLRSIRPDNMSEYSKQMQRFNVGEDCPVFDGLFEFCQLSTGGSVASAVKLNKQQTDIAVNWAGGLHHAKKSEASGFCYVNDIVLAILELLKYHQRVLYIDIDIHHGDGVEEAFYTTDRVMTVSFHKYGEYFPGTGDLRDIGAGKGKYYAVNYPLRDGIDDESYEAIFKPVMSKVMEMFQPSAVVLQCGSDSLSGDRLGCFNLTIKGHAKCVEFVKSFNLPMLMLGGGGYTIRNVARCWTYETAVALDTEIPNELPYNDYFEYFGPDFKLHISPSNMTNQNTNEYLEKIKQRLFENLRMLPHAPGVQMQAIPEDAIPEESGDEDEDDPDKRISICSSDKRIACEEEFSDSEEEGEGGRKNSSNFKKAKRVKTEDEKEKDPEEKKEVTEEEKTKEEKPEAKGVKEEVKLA

SMILES	inhibition [2]	Activity (Supercoiled DNA)	IC50 (Histone deacetylase 1 [3])	IC50 [4]	IC50 (Histone deacetylase 8)	IC50 (NCI-H1299)	IC50 (MDA-MB-231 [5])	IC50 (MCF7)	IC50 (HT-29)	IC50 (A549 [6])	also measured
O=C(CCCCCOc1ccc(-c2nc3ccccc3c3cc(-c4ccccc4)nn23)cc1)NO	–	–	–	–	–	–	–	–	–	–	IC50 (Histone deacetylase 1 [1]): 790 nM
O=C(CCCCCCOc1ccc2nc(-c3ccccc3)ccc2c1)NO	Active; Observed As More Active Than Etoposide	inactive	47.4 nM	> 500 nM	> 500 nM	4250 nM	8930 nM	9380 nM	8340 nM	3950 nM	–
COc1ccc(-c2ccc3cc(OCCCCCCC(=O)NO)ccc3n2)cc1	Active; Observed As More Active Than Etoposide	inactive	28 nM	> 500 nM	> 500 nM	2330 nM	978 nM	1440 nM	3910 nM	1600 nM	inhibition [7]: Active; inhibition (A549 [8]): Active; Activity (A549 [9]): Active; Exhibited Commendable Decrease In Mass Of 3D Sphere; Activity (A549 [10]): Active; Activity (A549 [11]): Active; Activity (A549 [12]): Active; Result Signifies That Cell Death Induced Via Mitochondrial-Dependent Pathways; Activity (A549 [13]): Active; Activity (A549 [14]): Active; Activity (A549 [15]): Active
O=C(CCCCCCC(=O)Nc1ccccc1)NO [VORINOSTAT]	–	–	–	–	–	–	–	–	–	7760 nM	IC50 [16]: 1030 nM; Activity [17]: Non-toxic
CC[C@@]1(O)C(=O)OCc2c1cc1n(c2=O)Cc2cc3ccccc3nc2-1 [CAMPTOTHECIN]	–	–	–	–	–	5220 nM	7360 nM	5670 nM	6870 nM	6860 nM	Activity (MDA-MB-231 [18]): inactive
COc1cc(-c2ccc3cc(OCCCCCC(=O)NO)ccc3n2)cc(OC)c1OC	Active	inactive	44.1 nM	> 500 nM	> 500 nM	3230 nM	6240 nM	5220 nM	1900 nM	1850 nM	–
COc1ccc(-c2ccc3ccc(OCCCCCC(=O)NO)cc3n2)cc1I	Active; Observed As More Active Than Etoposide	inactive	33.5 nM	47.8 nM	> 500 nM	1980 nM	1490 nM	2870 nM	2860 nM	1770 nM	inhibition [7]: Active; inhibition (A549 [8]): Active; Activity (A549 [9]): Active; Exhibited Potent Effect; Activity (A549 [10]): Active; Activity (A549 [11]): Active; Activity (A549 [12]): Not active; Result Signifies That Cell Death Induced Via Mitochondrial-Independent Pathways; Activity (A549 [13]): Active; Activity (A549 [14]): Active; Activity (A549 [15]): Active
COc1cc([C@@H]2c3cc4c(cc3[C@@H](O[C@@H]3O[C@@H]5CO[C@@H](C)O[C@H]5[C@H](O)[C@H]3O)[C@H]3COC(=O)[C@H]23)OCO4)cc(OC)c1O [ETOPOSIDE]	–	–	–	–	–	–	–	–	–	–	IC50 [16]: 1630 nM; Activity [17]: Non-toxic
COc1cc(-c2ccc3cc(OCCCCCCC(=O)NO)ccc3n2)cc(OC)c1OC	Active	inactive	69.8 nM	243 nM	> 500 nM	4810 nM	5870 nM	4660 nM	4970 nM	3750 nM	–
CN1c2ccc(NCc3ccc(-c4noc(CC(=O)NO)n4)cc3)cc2C(O)N2CCc3c([nH]c4ccc(O)cc34)C12 (stereo unspecified)	–	–	–	–	–	–	–	–	–	–	IC50 (Histone deacetylase 1 [19]): 24 nM; IC50 [20]: 13 nM
O=C(CCCCCn1cc(-c2ccc(Nc3c4ccccc4nc4ccccc34)cc2)nn1)NO	–	–	–	–	–	–	–	–	–	–	IC50 (Histone deacetylase 1 [19]): 3.9 nM; IC50 [20]: 2.9 nM
O=C(CCCCCCOc1ccc(-c2ccc3ccccc3n2)cc1)NO	Active; Observed As More Active Than Etoposide	inactive	66.5 nM	276 nM	> 500 nM	2460 nM	3810 nM	4820 nM	3450 nM	853 nM	–
CC[C@@]1(O)C(=O)OCc2c1cc1n(c2=O)Cc2c-1nc1ccccc1c2/C=N\OCCCCCCC(=O)NO	–	–	–	–	–	–	–	–	–	–	IC50 (Histone deacetylase 1 [19]): 5.26 nM; IC50 [20]: 5.22 nM

From ChEMBL document CHEMBL6121021, “Design and Synthesis of Topoisomerases-Histone Deacetylase Dual Targeted Quinoline-Bridged Hydroxamates as Anticancer Agents” (J Med Chem, 2025)
